Experimental data reported in article PMC6893645, “Baicalein as a Potential Inhibitor against BACE1 and AChE: Mechanistic Comprehension through In Vitro and Computational Approaches” (Nutrients, 2019).

Key:
[1] = parameters: method as in doi:10.1016/j.arabjc.2017.08.002; settings: chemical scavenging and cellular antioxidant ability among flavonoids of S. baicalensis; cited from earlier work
human recombinant TACE = target: T1, human recombinant TACE (Homo sapiens, UniProt P78536); test: TACE fluorometric assay; assay type: biochemical
T1 construct: purchased R&D Systems (Minneapolis, MN, USA)
Procedure: A human recombinant TACE (0.1 ppm in 25 mM Tris buffer), the substrate (APP peptide […] using EDANS/DABCYL), and baicalein were dissolved in an assay buffer and then combined and incubated for 60 min in the dark at 25 °C.

trypsin = test: Trypsin colorimetric assay; assay type: biochemical; settings: for Inhibitory activity against Trypsin: mean ± SD
Procedure: (§1) The colorimetric assays of AChE, trypsin, chymotrypsin, and elastase were carried out using acetylthiocholine iodide, […], and N-succinyl-Ala-Ala-Ala-pNA as substrates, respectively. The hydrolysis of AChE was monitored according to the formation of yellow 5-thio-2-nitrobenzoate anions at 405 nm for 15 min, which were produced by the reaction of DTNB with thiocholine released from ACh. All reactions were performed in 96-well plates in triplicate and recorded using a microplate spectrophotometer.
(§2) For trypsin, chymotrypsin, and elastase assays, enzyme, Tris-HCl buffer (0.05 M, in 0.02 M CaCl2, pH 8.2), and baicalein were incubated for 10 min at 25 °C; then, substrate was added for 30 min at 37 °C. The absorbance was recorded at 410 nm. The inhibition ratio was obtained using the following equation:Inhibition (%) = {[1 − (A − B)]/control} × 100 where A was the absorbance of the control (enzyme, assay buffer, and substrate) after 60 min of incubation, and B was the absorbance of tested sample (assay buffer and sample solution) after 60 min of incubation.

chymotrypsin = target: T2, chymotrypsin (Bos taurus, UniProt P00766); test: Chymotrypsin colorimetric assay; assay type: biochemical
T2 construct: purchased Sigma-Aldrich (St. Louis, MO, USA)
Procedure: as §1, §2

elastase = target: T3, elastase (Sus scrofa, UniProt P00772); test: Elastase colorimetric assay; assay type: biochemical
T3 construct: purchased Sigma-Aldrich (St. Louis, MO, USA)
Procedure: as §1, §2

AChE = AChE (Electrophorus electricus, UniProt O42275); settings: Dixon and Lineweaver–Burk plots
Procedure: The colorimetric assays of AChE, trypsin, chymotrypsin, and elastase were carried out using acetylthiocholine iodide, N-benzoyl-L-Tyr-pNA, N-benzoyl-L-Arg-pNA, and N-succinyl-Ala-Ala-Ala-pNA as substrates, respectively. […] All reactions were performed in 96-well plates in triplicate and recorded using a microplate spectrophotometer.
The inhibitory constant (Ki) was obtained by interpretation of the Dixon plot, and maximum reaction velocity (Vmax) and Michaelis–Menten constant (Km) values were determined by a Lineweaver–Burk plot, using the initial velocities obtained over a different substrate concentration ranges.

Tg2576 mice = test system: Tg2576 mice; parameters: method as in PMID 23686791; settings: 10 mg/kg; cited from earlier work
APP/PS1 mice = settings: 80 mg/kg; cited from earlier work
[2] = test system: AlCl3-induced AD mouse model; settings: cited from earlier work
[3] = cited from earlier work
[4] = rat, oral S. baicalensis extract 30 mg/kg; cited from earlier work
[5] = humans, 2.8 mg single dose; cited from earlier work
BACE1 = test system: BACE1; parameters: method as in PMID 24291393; settings: cited from earlier work

T3 sequence (P00772 27-266): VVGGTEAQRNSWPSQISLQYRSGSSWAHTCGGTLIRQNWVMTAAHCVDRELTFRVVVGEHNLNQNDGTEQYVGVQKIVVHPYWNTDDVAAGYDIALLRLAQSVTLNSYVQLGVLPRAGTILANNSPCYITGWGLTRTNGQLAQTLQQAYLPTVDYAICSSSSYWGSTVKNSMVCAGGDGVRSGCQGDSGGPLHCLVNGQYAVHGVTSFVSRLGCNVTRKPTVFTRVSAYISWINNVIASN
T1 sequence (P78536 215-824): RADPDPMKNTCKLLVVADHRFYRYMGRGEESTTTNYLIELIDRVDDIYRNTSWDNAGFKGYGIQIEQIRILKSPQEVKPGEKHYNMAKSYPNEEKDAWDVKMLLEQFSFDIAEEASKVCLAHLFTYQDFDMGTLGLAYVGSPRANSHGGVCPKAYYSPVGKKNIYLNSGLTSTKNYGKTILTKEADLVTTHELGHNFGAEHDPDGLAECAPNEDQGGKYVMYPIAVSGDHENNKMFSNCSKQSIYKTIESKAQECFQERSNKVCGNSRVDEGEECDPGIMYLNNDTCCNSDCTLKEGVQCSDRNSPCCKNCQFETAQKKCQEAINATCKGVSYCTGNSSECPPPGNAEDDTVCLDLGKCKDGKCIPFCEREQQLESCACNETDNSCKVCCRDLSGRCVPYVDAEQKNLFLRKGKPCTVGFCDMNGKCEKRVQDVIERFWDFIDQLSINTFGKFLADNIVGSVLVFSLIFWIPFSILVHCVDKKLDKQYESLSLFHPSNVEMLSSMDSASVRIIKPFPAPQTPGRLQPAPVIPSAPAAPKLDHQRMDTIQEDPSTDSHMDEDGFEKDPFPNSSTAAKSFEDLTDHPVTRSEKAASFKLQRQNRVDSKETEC
AChE, sequence (O42275 24-633): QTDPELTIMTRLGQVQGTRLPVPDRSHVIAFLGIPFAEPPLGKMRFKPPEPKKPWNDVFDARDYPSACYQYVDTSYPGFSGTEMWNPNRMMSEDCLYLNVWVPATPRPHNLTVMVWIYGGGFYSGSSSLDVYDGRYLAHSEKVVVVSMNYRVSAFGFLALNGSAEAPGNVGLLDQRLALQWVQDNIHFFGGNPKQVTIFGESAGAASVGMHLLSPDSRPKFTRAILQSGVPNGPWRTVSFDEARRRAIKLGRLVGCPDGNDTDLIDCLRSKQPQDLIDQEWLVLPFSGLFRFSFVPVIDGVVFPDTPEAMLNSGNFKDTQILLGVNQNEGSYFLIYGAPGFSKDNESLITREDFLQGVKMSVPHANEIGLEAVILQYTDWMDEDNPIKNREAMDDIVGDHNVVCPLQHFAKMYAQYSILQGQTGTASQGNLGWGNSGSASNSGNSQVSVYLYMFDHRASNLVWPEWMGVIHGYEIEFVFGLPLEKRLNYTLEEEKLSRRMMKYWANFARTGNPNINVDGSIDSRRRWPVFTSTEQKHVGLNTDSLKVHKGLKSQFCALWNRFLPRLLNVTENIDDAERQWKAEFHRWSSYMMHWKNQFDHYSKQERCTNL

For `O=c1cc(-c2ccccc2)oc2cc(O)cc(O)c12` [Chrysin, reference compound], the Antioxidant ability [1] is listed as “much weaker antioxidant ability”.
In the case of `O=c1cc(-c2ccccc2)oc2cc(O)c(O)c(O)c12` [Baicalein, 5,6,7-trihydroxyflavone], the inhibition at 50 µM (human recombinant TACE; baicalein 50 μM, mean ± SD, read-out: Inhibitory activity against TACE) is reported as 8.31 ± 0.89%, the inhibition at 100 µM (human recombinant TACE; baicalein 100 μM, mean ± SD, read-out: Inhibitory activity against TACE) is reported as 9.45 ± 0.71% and the “Inhibitory activity against TACE (in words)” value (human recombinant TACE; up to 100 µM) is reported as “no significant inhibitory activity”. The “Inhibitory activity against Trypsin” value (trypsin; baicalein 50 μM) was 3.40 ± 0.76%, the “Inhibitory activity against Trypsin” value (trypsin; baicalein 100 μM) was −6.95 ± 0.87% and the “Inhibitory activity against trypsin (in words)” value (trypsin; up to 100 µM) was “no significant inhibitory activity”. The inhibition at 50 µM (chymotrypsin; baicalein 50 μM, mean ± SD, read-out: Inhibitory activity against Chymotrypsin) was 8.42 ± 0.76%, the inhibition at 100 µM (chymotrypsin; baicalein 100 μM, mean ± SD, read-out: Inhibitory activity against Chymotrypsin) was 4.48 ± 0.76% and the “Inhibitory activity against chymotrypsin (in words)” value (chymotrypsin; up to 100 µM) was “no significant inhibitory activity”. The inhibition at 50 µM (elastase; baicalein 50 μM, mean ± SD, read-out: Inhibitory activity against Elastase) was 10.3 ± 1.04%, the inhibition at 100 µM (elastase; baicalein 100 μM, mean ± SD, read-out: Inhibitory activity against Elastase) was 9 ± 0.45% and the “Inhibitory activity against elastase (in words)” value (elastase; up to 100 µM) was “no significant inhibitory activity”. For the same compound, the “AChE Inhibition Type” value (AChE) was “Competitive”, the Cognitive performance (Tg2576 mice) was “significantly improves” and the “LOX and GSK3β activity” value (APP/PS1 mice) was “inhibits LOX and GSK3β activity”. The Behavioral dysfunction [2] was “improved”, the Antioxidant ability [1] was “most powerful antioxidant effect” and the “Time to cross the BBB after administration” value ([3]; 30 mg/kg) was “about half an hour”. For the same compound, the BBB penetration ([3]; rat, 30 and 60 mg/kg through the femoral vein) was “rapidly penetrated the BBB”, the “Brain-to-plasma ratio compared with baicalin” value [4] was “twenty times higher” and the “Toxicity after single-dose administration” value [5] was “no signs of toxicity”.
In the case of `O=c1cc(-c2ccc(O)cc2)oc2cc(O)cc(O)c12` [Apigenin, 4′,5,7-trihydroxyflavone], the IC50 (BACE1) is listed as over 100 µM.
